# In US20220135567A1, “TYK2 PSEUDOKINASE LIGANDS” (Ventyx Biosciences, Inc., priority 2019, published 2022):
# Tested on: IFN-a/Jak1Tyk2
# Experiment: Co-stimulation assay in lysed whole blood: IFNa (JAK1/TYK2) stimulated STAT1 phosphorylation
# Type: cell-based
# Details: 20 min, lysed human whole blood, IFNa 100 ng/mL + GM-CSF 10 ng/mL, pSTAT1 by flow cytometry
# Description: Dilute RBC lysis buffer to 1× in distilled water. Add 2 mL blood to 38 mL of 1×RBC-lysis buffer. Incubate for 15 mins at RT, in dark. Spin at 300 g, 5 mins, to collect the pellet. Re-lyse if necessary. Re-suspend pellet in 5 mL of cRPMI.
# Aliquot 80 μL of lysed human blood in to wells of 96 deep-well plate. Add 10 μl of (10× conc.) of different concentrations of compounds to all wells except controls (unstained and unstimulated) and mix it with the help of 100 uL multichannel. Add 10 uL of RPMI media in controls. For dilution of compounds and dilution range please refer Appendix. Incubate on water bath or CO2 incubator for 1 hour at 37° C. Add 10 μl of (10× conc.) of cytokine mix (GM-CSF and IFNa) (final conc. 10 ng/mL of GM-CSF and 100 ng/mL of IFNa) to each well except unstimulated and unstained controls and incubate further for 20 minutes on water bath at 37° C.
# Add 900 μL of prewarmed 1× Fix/Lyse solution (Appendix) and mix it properly using 1000 μl multichannel, incubate further on water bath at 37° C. for 10 minutes (which includes time of addition). Centrifuge at 800×g for 5 minutes at 40° C.; remove 900 uL of supernatant and add 900 μL of 1×PBS. Centrifuge at 800×g for 5 minutes at 40° C., remove 900 μL of supernatant. Wash one more time with 900 μL of PBS (optional) and resuspend pellets in 100 uL of PBS.
# Disrupt the pellet by gentle tapping and resuspend in 1000 μL of BD Phosflow Perm Buffer III and incubate plate on ice for 30 minutes. Centrifuge plate at 800×g for 5 minutes at 40° C. Wash two more times with 1000 μL of BD Pharmingen Stain Buffer.
# Disrupt the pellet by gentle tapping. Resuspend pellets in 100 uL of Stain Buffer and add 5 μL of pSTAT5_AF488 Ab and 5 uL of pSTAT1_PE in all wells except unstained control and mix properly using 200 μl multichannel, incubate overnight at […]. Add 900 μL of wash buffer and centrifuge at 1800 rpm for 3 minutes at […]. Wash one more time with 1000 μL of BD Pharmingen Stain Buffer. Finally resuspend the pellet in 300 uL of BD Pharmingen Stain Buffer. Transfer the cells to 96-well v-bottom plate and acquire the cells in Beckman Coulter CytExpert. Acquiring cells in Flow Cytometer: Keep the threshold value to 250 and cell concentration should not exceed 100-500 cells/μL. Acquire at least 5,000-10,000 cells.
# Cytokine dilution: 1) GM-CSF Stock at 100 ug/mL. Prepare an intermediate dilution of 1 ug/mL by adding 2 uL of stock into 198 uL of cRPMI. Further dilute to 100 ng/mL by adding 100 uL of the intermediate stock to 900 uL of cRPMI. 2) IFNa Stock at 200 ug/mL. Dilute IFNa stock 1:200 by adding 5 uL of stock into the 1000 uL of 100 ng/mL GM-CSF working stock as above to give a combined working stock of 1000 ng/mL of IFNa and 100 ng/mL GM-CSF (10×). Keep it on ice until used.
# Lyse/Fix buffer preparation: Dilute 5× Lyse/Fix buffer to 1× using MQ water and keep at 37° C. until used.
# BD Phosflow perm buffer III: Keep on ice/fridge.
row,SMILES,IC50 [nM]
1,"CNc1cc(Nc2cccn(-c3ccc(OC)nn3)c2=O)nc2c(C(=O)NC3CCOC3)cnn12 (centres unmarked) [Compound 106, 5-((1-(6-methoxypyridazin-3-yl)-2-oxo-1,2-dihydropyridin-3-yl)amino)-7-(methylamino)-N-(tetrahydrofuran-3-yl)pyrazolo[1,5-a]pyrimidine-3-carboxamide]",100 to 1000
2,"CNc1cc(Nc2ccnn2C)nc2c(C(=O)NC3CC3)cnn12 [Compound 53, N-cyclopropyl-5-((1-methyl-1H-pyrazol-5-yl)amino)-7-(methylamino)pyrazolo[1,5-a]pyrimidine-3-carboxamide]",100 to 1000
3,"CNc1cc(Nc2cccn(C)c2=O)nc2c(C(=O)NC3CC(O)C3)cnn12 (centres unmarked) [Compound 86, N-(3-hydroxycyclobutyl)-5-((1-methyl-2-oxo-1,2-dihydropyridin-3-yl)amino)-7-(methylamino)pyrazolo[1,5-a]pyrimidine-3-carboxamide]",> 3000
4,"CNc1cc(Nc2ccnn2CCO)nc2c(C(=O)NC3CC3)cnn12 [Compound 69, N-cyclopropyl-5-((1-(2-hydroxyethyl)-1H-pyrazol-5-yl)amino)-7-(methylamino)pyrazolo[1,5-a]pyrimidine-3-carboxamide]",1000 to 10000
5,"CCOC(=O)c1nn(C)cc1Nc1cc(NC)n2ncc(C(=O)NC3CC3)c2n1 [Compound 42, ethyl 4-((3-(cyclopropylcarbamoyl)-7-(methylamino)pyrazolo[1,5-a]pyrimidin-5-yl)amino)-1-methyl-1H-pyrazole-3-carboxylate]",100 to 1000
6,"CNc1cc(Nc2cccn(-c3ccc(OC)nn3)c2=O)nc2c(C(=O)NCC(C)(C)O)cnn12 [Compound 103, N-(2-hydroxy-2-methylpropyl)-5-((1-(6-methoxypyridazin-3-yl)-2-oxo-1,2-dihydropyridin-3-yl)amino)-7-(methylamino)pyrazolo[1,5-a]pyrimidine-3-carboxamide]",1000 to 10000
7,"CC(C)(CO)CNC(=O)c1cnn2c(N)cc(Nc3cccc4c3OCO4)nc12 [Compound 58, 7-amino-5-(benzo[d][1,3]dioxol-4-ylamino)-N-(3-hydroxy-2,2-dimethylpropyl)pyrazolo[1,5-a]pyrimidine-3-carboxamide]",100 to 1000
8,"CNc1cc(Nc2ccccc2OC(F)(F)F)nc2c(C(=O)NC3CC3)cnn12 [Compound 54, N-cyclopropyl-7-(methylamino)-5-((2-(trifluoromethoxy)phenyl)amino) pyrazolo[1,5-a]pyrimidine-3-carboxamide]",100 to 1000
9,"CNc1cc(Nc2ccccc2C(=O)OC)nc2c(C(=O)NC3CC3)cnn12 [Compound 28, methyl 2-((3-(cyclopropylcarbamoyl)-7-(methylamino)pyrazolo[1,5-a]pyrimidin-5-yl)amino)benzoate]",100 to 1000
10,"CNc1cc(Nc2cccn(C)c2=O)nc2c(C(=O)NC3CC(C#N)C3)cnn12 (centres unmarked) [Compound 87, N-(3-cyanocyclobutyl)-5-((1-methyl-2-oxo-1,2-dihydropyridin-3-yl)amino)-7-(methylamino)pyrazolo[1,5-a]pyrimidine-3-carboxamide]",100 to 1000
11,"CNc1cc(Nc2cccc3c2CCCO3)nc2c(C(=O)NCC(C)(C)CO)cnn12 [Compound 81, 5-(chroman-5-ylamino)-N-(3-hydroxy-2,2-dimethylpropyl)-7-(methylamino)pyrazolo[1,5-a]pyrimidine-3-carboxamide]",100 to 1000

# Continued, values first:
row,IC50 [nM],SMILES
1,< 100,"CNc1cc(Nc2cccc3c2OCCC3)nc2c(C(=O)NC3CCC3)cnn12 [Compound 89, 5-(chroman-8-ylamino)-N-cyclobutyl-7-(methylamino)pyrazolo[1,5-a]pyrimidine-3-carboxamide]"
2,< 100,"CNc1cc(Nc2cccc3c2OCCO3)nc2c(C(=O)NC3C[C@@H]3F)cnn12 (stereo partly drawn) [Compound 97, 5-((2,3-dihydrobenzo[b][1,4]dioxin-5-yl)amino)-N-((2S)-2-fluorocyclopropyl)-7-(methylamino)pyrazolo[1,5-a]pyrimidine-3-carboxamide]"
3,< 100,"[2H]C([2H])([2H])Nc1cc(Nc2cc(Cl)cc3c2OCCO3)nc2c(C(=O)NC3CC3)cnn12 [Compound 77, 5-((7-chloro-2,3-dihydrobenzo[b][1,4]dioxin-5-yl)amino)-N-cyclopropyl-7-((methyl-d3)amino)pyrazolo[1,5-a]pyrimidine-3-carboxamide]"
4,< 100,"CNc1cc(Nc2cccc3c2OCCO3)nc2c(C(=O)NC3(C#N)CC3)cnn12 [Compound 95, N-(1-cyanocyclopropyl)-5-((2,3-dihydrobenzo[b][1,4]dioxin-5-yl)amino)-7-(methylamino)pyrazolo[1,5-a]pyrimidine-3-carboxamide]"
5,< 100,"CNc1cc(Nc2ccccc2OC)nc2c(C(=O)NC3CC3)cnn12 [Compound 16, N-cyclopropyl-5-((2-methoxyphenyl)amino)-7-(methylamino)pyrazolo[1,5-a]pyrimidine-3-carboxamide]"
6,< 100,"CNc1cc(Nc2ccccc2OC)nc2c(C(=O)NCC(C)(C)CO)cnn12 [Compound 22, N-(3-hydroxy-2,2-dimethylpropyl)-5-((2-methoxyphenyl)amino)-7-(methylamino)pyrazolo[1,5-a]pyrimidine-3-carboxamide]"
7,< 100,"CNc1cc(Nc2cccc3c2OCCC3)nc2c(C(=O)NCC(C)(C)CO)cnn12 [Compound 90, 5-(chroman-8-ylamino)-N-(3-hydroxy-2,2-dimethylpropyl)-7-(methylamino)pyrazolo[1,5-a]pyrimidine-3-carboxamide]"
8,< 100,"[2H]C([2H])([2H])Nc1cc(Nc2cc(F)cc3c2OCCO3)nc2c(C(=O)N[C@@H]3C[C@@H]3F)cnn12 [Compound 80, 5-((7-fluoro-2,3-dihydrobenzo[b][1,4]dioxin-5-yl)amino)-N-((1R,2S)-2-fluorocyclopropyl)-7-((methyl-d3)amino)pyrazolo[1,5-a]pyrimidine-3-carboxamide]"
9,< 100,"CNc1cc(Nc2c(F)c(F)cc(F)c2F)nc2c(C(=O)NC3CC3)cnn12 [Compound 17, N-cyclopropyl-7-(methylamino)-5-((2,3,5,6-tetrafluorophenyl)amino)pyrazolo[1,5-a]pyrimidine-3-carboxamide]"
10,< 100,"CNc1cc(Nc2cccc3c2OCCO3)nc2c(C(=O)NC3CC(O)C3)cnn12 (centres unmarked) [Compound 102, 5-((2,3-dihydrobenzo[b][1,4]dioxin-5-yl)amino)-N-(3-hydroxycyclobutyl)-7-(methylamino)pyrazolo[1,5-a]pyrimidine-3-carboxamide]"
11,< 100,"CNc1cc(Nc2cc(F)cc(F)c2OC)nc2c(C(=O)NC3CC3F)cnn12 (centres unmarked) [Compound 73, 5-((3,5-difluoro-2-methoxyphenyl)amino)-N-(2-fluorocyclopropyl)-7-(methylamino)pyrazolo[1,5-a]pyrimidine-3-carboxamide]"
12,< 100,"CNc1cc(Nc2c(F)c(F)cc(F)c2F)nc2c(C(=O)NCC(C)(C)CO)cnn12 [Compound 24, N-(3-hydroxy-2,2-dimethylpropyl)-7-(methylamino)-5-((2,3,5,6-tetrafluorophenyl)amino)pyrazolo[1,5-a]pyrimidine-3-carboxamide]"
13,< 100,"CNc1cc(Nc2cccn(-c3ccnc(C)n3)c2=O)nc2c(C(=O)NC3CCC3)cnn12 [Compound 110, N-cyclobutyl-7-(methylamino)-5-((1-(2-methylpyrimidin-4-yl)-2-oxo-1,2-dihydropyridin-3-yl)amino)pyrazolo[1,5-a]pyrimidine-3-carboxamide]"

# Same assay, conditions: lysed human whole blood; IFNa 100 ng/mL + GM-CSF 10 ng/mL, 20 minutes; pSTAT1 by flow cytometry
row,SMILES,IC50 [nM]
1,"CNc1cc(Nc2cc(C)cc(C)c2)nc2c(C(N)=O)cnn12 [Compound 10, 5-((3,5-dimethylphenyl)amino)-7-(methylamino)pyrazole[1,5-a]pyrimidine-3-carboxamide]",< 100
2,"CNc1cc(Nc2cc(F)cc(F)c2OC)nc2c(C(N)=O)cnn12 [Compound 13, 5-((3,5-difluoro-2-methoxyphenyl)amino)-7-(methylamino)pyrazole[1,5-a]pyrimidine-3-carboxamide]",< 100
